Results on 22 compounds are retold here after patent US10689377B2 (Mirati Therapeutics, Inc., priority 2017, dated 2020).

Some results are limits rather than exact numbers.

KRas G12C, sequence (P01116 1-188 isoform P01116-2 G12C): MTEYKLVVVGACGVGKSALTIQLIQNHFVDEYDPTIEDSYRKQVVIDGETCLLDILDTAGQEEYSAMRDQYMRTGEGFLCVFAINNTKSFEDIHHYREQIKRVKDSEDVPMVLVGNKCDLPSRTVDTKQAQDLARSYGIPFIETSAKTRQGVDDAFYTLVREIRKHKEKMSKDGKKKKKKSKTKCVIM

The assay addresses KRas G12C (Homo sapiens, UniProt P01116, G12C). Put plainly: Cellular inhibition of KRas G12C measured by Phospho-ERK in NCI-H358 cells. The note with it: pERK(Thr202/Tyr204) normalized with GAPDH, NCI-H358 cells, 3 hours; read-out: IC50. The assay is classed as cell-based. As to the method:
Cells were plated in poly-D-Lysine coated 96-well plates at a concentration of 50,000 cells/well and allowed to attach for 8-12 hours. Diluted compounds were then added at a final concentration of 0.5% DMSO. After 3 hours, the medium was removed, 150 μL of 4% formaldehyde was added and the plates were incubated for 20 minutes. The plates were washed with PBS, and permeabilized using 150 μL of ice cold 100% methanol for 10 minutes. Non-specific antibody binding to the plates was blocked using 100 μL Licor Blocking Buffer (Li-Cor Biotechnology, Lincoln Nebr.) for 1 hour at room temperature. Positive control samples and samples lacking cells were parallel processed with test samples as standards.
The amount Phospho-ERK was determined using an antibody specific for the phosphorylated form of ERK and compared to the amount of GAPDH. […] The plates were incubated for 2 hours at room temperature. The plates were washed with PBS+0.05% Tween 20.
Secondary antibodies used to visualize primary antibodies were added as follows: Anti-rabbit-680 diluted 1:1000 and Anti-mouse-800 diluted 1:1000 in Licor Block+0.05% Tween 20 and incubated for 1 hour at room temperature. The plates were washed with PBS+0.05% Tween 20. A 100 μL aliquot of PBS was added to each well and the plates were read on a LICOR AERIUS plate reader.
The pERK(Thr202/Tyr204) signal was normalized with the GAPDH signal and percent of DMSO control values were calculated. IC50 values were generated using a 4 parameter fit of the dose response curve. Key: “A”≥0.0001-≤1 μM; “B”>1 μM and ND=not determined.
Consider `C=CC(=O)N1CCN(c2nc(OC(C)CCN(C)C)nc3c2CCN(c2cc(O)cc4ccccc24)C3)CC1` (stereo not shown) [Example 21, 1-(4-(2-((4-(dimethylamino)butan-2-yl)oxy)-7-(3-hydroxynaphthalen-1-yl)-5,6,7,8-tetrahydropyrido[3,4-d]pyrimidin-4-yl)piperazin-1-yl)prop-2-en-1-one], for which the half-inhibitory concentration (IC50) was 0.1 to 1000 nM. Next, `C=CC(=O)N1CCN(c2nc(OC[C@@H]3CCCN3C)nc3c2CCN(c2cccc4ccc(Cl)cc24)C3)CC1CC#N` (stereo partly drawn) [Example 253, 2-(1-acryloyl-4-(7-(7-chloronaphthalen-1-yl)-2-(((S)-1-methylpyrrolidin-2-yl)methoxy)-5,6,7,8-tetrahydropyrido[3,4-d]pyrimidin-4-yl)piperazin-2-yl)acetonitrile]: 0.1 to 1000 nM; `C=C(F)C(=O)N1CCN(c2nc(OC[C@H]3C[C@@H](F)CN3C)nc3c2CCN(c2cccc4cccc(C)c24)C3)C[C@@H]1CC#N` [Example 518, 2-[(2S)-4-[2-[[(2R,4R)-4-fluoro-1-methyl-pyrrolidin-2-yl]methoxy]-7-(8-methyl-1-naphthyl)-6,8-dihydro-5H-pyrido[3,4-d]pyrimidin-4-yl]-1-(2-fluoroprop-2-enoyl)piperazin-2-yl]acetonitrile]: 0.1 to 1000 nM; `C=CC(=O)N1CCN(c2nc(OC[C@H]3C[C@@H](O)CN3C)nc3c2CCN(c2cccc(F)c2C(F)(F)F)C3)CC1CC#N` (stereo partly drawn) [Example 416, 2-(1-acryloyl-4-(7-(3-fluoro-2-(trifluoromethyl)phenyl)-2-(((2R,4R)-4-hydroxy-1-methylpyrrolidin-2-yl)methoxy)-5,6,7,8-tetrahydropyrido[3,4-d]pyrimidin-4-yl)piperazin-2-yl)acetonitrile]: 0.1 to 1000 nM. Next, `C=CC(=O)N1CCN(c2nc(OC[C@@H]3CCCC(=O)N3)nc3c2CCN(c2cc(O)cc4ccccc24)C3)CC1` (single isomer, unassigned) [Example 61]: above 1000 nM; `C=CC(=O)N1CCN(c2nc(OC[C@@H]3CCCN3C)nc3c2CCN(c2ccccc2CC(F)(F)F)C3)CC1CC#N` (stereo partly drawn) [Example 240, 2-(1-acryloyl-4-(2-(((S)-1-methylpyrrolidin-2-yl)methoxy)-7-(2-(2,2,2-trifluoroethyl)phenyl)-5,6,7,8-tetrahydropyrido[3,4-d]pyrimidin-4-yl)piperazin-2-yl)acetonitrile]: above 1000 nM; `C=CC(=O)N1CCN(c2nc(OC[C@H]3CCCN3C)nc3c2CCN(c2cccc4ccccc24)C3)C[C@@H]1CC#N` [Example 441, 2-((S)-1-acryloyl-4-(2-(((R)-1-methylpyrrolidin-2-yl)methoxy)-7-(naphthalen-1-yl)-5,6,7,8-tetrahydropyrido[3,4-d]pyrimidin-4-yl)piperazin-2-yl)acetonitrile]: 0.1 to 1000 nM. Then `C=CC(=O)N1CCN(c2nc(OCC3CCN(CCOC)C3)nc3c2CCN(c2cc(O)cc4ccccc24)C3)CC1` (stereo not shown) [Example 103, 1-(4-(7-(3-hydroxynaphthalen-1-yl)-2-((1-(2-methoxyethyl)pyrrolidin-3-yl)methoxy)-5,6,7,8-tetrahydropyrido[3,4-d]pyrimidin-4-yl)piperazin-1-yl)prop-2-en-1-one], with 0.1 to 1000 nM; and `C=CC(=O)N1CCN(c2nc(OCCCN3CCOCC3)nc3c2CCN(c2ccc(O)cc2OC(F)(F)F)C3)CC1` [Example 106, 1-(4-(7-(4-hydroxy-2-(trifluoromethoxy)phenyl)-2-(3-morpholinopropoxy)-5,6,7,8-tetrahydropyrido[3,4-d]pyrimidin-4-yl)piperazin-1-yl)prop-2-en-1-one], with above 1000 nM.

With `C=CC(=O)N1CCN(c2nc(OC[C@@H]3CCCN3C)nc3c2CCN(c2cccc(OC)c2C(F)(F)F)C3)C[C@@H]1CC#N` [Example 330, 2-[(2S)-4-[7-[3-methoxy-2-(trifluoromethyl)phenyl]-2-[[(2S)-1-methylpyrrolidin-2-yl]methoxy]-6,8-dihydro-5H-pyrido[3,4-d]pyrimidin-4-yl]-1-prop-2-enoyl-piperazin-2-yl]acetonitrile], the IC50 lay within 0.1 to 1000 nM. As for `C=CC(=O)N1CCN(c2nc(OC[C@@H]3CCCN3C)nc3c2CCN(c2cccc4ccncc24)C3)C[C@@H]1CC#N` [Example 430], the IC50 was in the range of 0.1 to 1000 nM. Next, `C=CC(=O)N1CCN(c2nc(OC[C@@H]3C[C@@H](O)CN3C)nc3c2CCN(c2cccc4ccccc24)C3)C[C@@H]1CC#N` [Example 315, 2-[(2S)-4-[2-[[(2S,4R)-4-hydroxy-1-methyl-pyrrolidin-2-yl]methoxy]-7-(1-naphthyl)-6,8-dihydro-5H-pyrido[3,4-d]pyrimidin-4-yl]-1-prop-2-enoyl-piperazin-2-yl]acetonitrile]: 0.1 to 1000 nM. Then `C=C(F)C(=O)N1CCN(c2ncnc3c2CCN(c2cncc4cccc(Cl)c24)C3)C[C@@H]1CC#N` [Example 612, (S)-2-(4-(7-(5-chloroisoquinolin-4-yl)-5,6,7,8-tetrahydropyrido[3,4-d]pyrimidin-4-yl)-1-(2-fluoroacryloyl)piperazin-2-yl)acetonitrile], with above 1000 nM; and `C=CC(=O)N1CCN(c2nc(OCCCN3CCN(C)CC3)nc3c2CCN(c2cc(O)cc4ccccc24)C3)CC1` [Example 82, 1-(4-(7-(3-hydroxynaphthalen-1-yl)-2-(3-(4-methylpiperazin-1-yl)propoxy)-5,6,7,8-tetrahydropyrido[3,4-d]pyrimidin-4-yl)piperazin-1-yl)prop-2-en-1-one], with 0.1 to 1000 nM; and `Cc1cccc2cccc(N3CCc4c(nc(OC[C@@H]5CC(F)(F)CN5C)nc4N4CCN(C(=O)/C=C/CF)[C@@H](CC#N)C4)C3)c12` [Example 601, 2-[(2S)-4-[2-[[(2S)-4,4-difluoro-1-methyl-pyrrolidin-2-yl]methoxy]-7-(8-methyl-1-naphthyl)-6,8-dihydro-5H-pyrido[3,4-d]pyrimidin-4-yl]-1-[(E)-4-fluorobut-2-enoyl]piperazin-2-yl]acetonitrile], with 0.1 to 1000 nM. With `C=CC(=O)N1CCN(c2nc(OC[C@@H]3C[C@@H](OC)CN3C)nc3c2CCN(c2cc(OC)cc4ccccc24)C3)CC1` [Example 356, 1-[4-[2-[[(2S,4R)-4-methoxy-1-methyl-pyrrolidin-2-yl]methoxy]-7-(3-methoxy-1-naphthyl)-6,8-dihydro-5H-pyrido[3,4-d]pyrimidin-4-yl]piperazin-1-yl]prop-2-en-1-one], the IC50 is above 1000 nM.

With `C=CC(=O)N1CCN(c2nc(OCCCN3C[C@@H]4C[C@H]3CO4)nc3c2CCN(c2cc(O)cc4ccccc24)C3)CC1` [Example 104, 1-(4-(2-(3-((1S,4S)-2-oxa-5-azabicyclo[2.2.1]heptan-5-yl)propoxy)-7-(3-hydroxynaphthalen-1-yl)-5,6,7,8-tetrahydropyrido[3,4-d]pyrimidin-4-yl)piperazin-1-yl)prop-2-en-1-one], the half-inhibitory concentration (IC50) fell in the range of 0.1 to 1000 nM. As for `C=CC(=O)N1CCN(c2nc(OCC3CCN(C4CC4)C3)nc3c2CCN(c2cc(O)cc4ccccc24)C3)CC1` (stereo not shown) [Example 190, 1-(4-(2-((1-cyclopropylpyrrolidin-3-yl)methoxy)-7-(3-hydroxynaphthalen-1-yl)-5,6,7,8-tetrahydropyrido[3,4-d]pyrimidin-4-yl)piperazin-1-yl)prop-2-en-1-one], the IC50 is 0.1 to 1000 nM. Next, `Cc1cccc2cccc(N3CCc4c(nc(OC[C@@H]5CCCN5C)nc4N4CCN(C(=O)/C=C/c5cnn(C)c5)[C@@H](CC#N)C4)C3)c12` [Example 494, 2-((S)-1-((E)-3-(1-methyl-1H-pyrazol-4-yl)acryloyl)-4-(7-(8-methylnaphthalen-1-yl)-2-(((S)-1-methylpyrrolidin-2-yl)methoxy)-5,6,7,8-tetrahydropyrido[3,4-d]pyrimidin-4-yl)piperazin-2-yl)acetonitrile]: above 1000 nM.

With `C=CC(=O)N1CCN(c2nc(OC[C@@H]3CCCN3C)nc3c2CCN(c2cncc4ccccc24)C3)CC1CC#N` (stereo partly drawn) [Example 291, 2-[4-[7-(4-isoquinolyl)-2-[[(2S)-1-methylpyrrolidin-2-yl]methoxy]-6,8-dihydro-5H-pyrido[3,4-d]pyrimidin-4-yl]-1-prop-2-enoyl-piperazin-2-yl]acetonitrile], the IC50 fell in the range of 0.1 to 1000 nM. For `C=CC(=O)N1CCN(c2nc(OC[C@@H]3CCCN3CC(=O)N(C)C)nc3c2CCN(c2cccc4ccccc24)C3)C[C@@H]1CC#N` [Example 402, 2-((S)-2-(((4-((S)-4-acryloyl-3-(cyanomethyl)piperazin-1-yl)-7-(naphthalen-1-yl)-5,6,7,8-tetrahydropyrido[3,4-d]pyrimidin-2-yl)oxy)methyl)pyrrolidin-1-yl)-N,N-dimethylacetamide], the IC50 fell in the range of 0.1 to 1000 nM. Next, `C=CC(=O)N1CCN(c2nc(OC[C@@H]3CCCN3C)nc3c2CCN(c2cccc4cc(F)ccc24)C3)CC1CC#N` (stereo partly drawn) [Example 259, 2-[4-[7-(6-fluoro-1-naphthyl)-2-[[(2S)-1-methylpyrrolidin-2-yl]methoxy]-6,8-dihydro-5H-pyrido[3,4-d]pyrimidin-4-yl]-1-prop-2-enoyl-piperazin-2-yl]acetonitrile]: 0.1 to 1000 nM.

As a reminder, the IC50 is the concentration that gives 50% inhibition.
